# Data: PubChem BioAssay AID1996
# Details: buffer; pH 7.4; 200.0 µM
row,SMILES,solubility kinetic [µg/mL]
1,Cc1ccc(S(=O)(=O)NCC(=O)OCC(=O)Nc2ccc(C)c(S(=O)(=O)N3CCOCC3)c2)cc1,> 78.8
2,c1ccc(CCNCC2COc3ccccc3O2)cc1 (stereo unspecified),> 40.4
3,COc1ccc(CNC(=O)C2CCCN2C)cc1OC (stereo unspecified),37
4,COc1ccc(S(=O)(=O)NC2CCCCCC2)c(OC)c1,9.4
5,CCOC(=O)c1c(CC(C)C)csc1/N=C/C1=C(O)CCCC1=O,2.3
6,COc1cccc(CNCc2ccccc2OC)c1.O=C(O)C(=O)O,28.9
7,Cc1cc(C)n2nc(SCc3ccc(C#N)cc3)nc2n1,> 44.3
8,N#CC(C(N)=O)=C1CCCCC1,> 24.6
9,CCc1ccc(C(=O)OCC(=O)NC2CCCC2)cc1,11.6
10,Cc1cnc(NC(=O)Cc2cccs2)s1,> 35.7
11,Clc1cc(Cl)cc(CN2CCSCC2)c1,4.5
12,Clc1cccc(N2CCN(c3ncnc4nc[nH]c34)CC2)c1,0.8
13,Cc1cccc(-c2noc(CCC(=O)NC3CCCC3)n2)c1,> 44.9
14,CN1CCN(c2ccc([N+](=O)[O-])c(SCCO)c2)CC1,> 44.6
15,O=C(Nc1ccc(F)cc1)OC1CN2CCC1CC2 (stereo unspecified),> 39.6
16,COc1cc(/C=C2\SC(N)=NC2=O)cc(Br)c1O,1.7
17,CN(C)CCNC(=O)Nc1ccc([N+](=O)[O-])cc1,> 37.8
18,CN(C)C(=O)Oc1ccc2c(c1)O/C(=C\c1cccc([N+](=O)[O-])c1)C2=O,< 0.4
19,Cc1ccc2c(C)cc(=S)[nH]c2c1,7.1
20,CC(NC(=O)CN1C(=O)NC2(CCCC2)C1=O)c1ccc(Cl)cc1Cl (stereo unspecified),51.8
21,NS(=O)(=O)c1ccc(CNC(=O)C2CCCN2C(=O)c2cccs2)cc1 (stereo unspecified),> 59
22,CCC1Oc2ccccc2N(CC(=O)NC2CCCCC2)C1=O (stereo unspecified),43.9
23,Nc1nc(-c2ccc3c(c2)OCCO3)c(CC(=O)O)s1,41.1
24,O=C(/C=C/N1CCN(Cc2ccccc2)CC1)C(F)(F)F,> 44.7
25,COc1cc(OC)cc(C(=O)NCCCCNC(=O)c2cc(OC)cc(OC)c2)c1,1.1
26,O=C(O)c1ccc(Cn2c(=S)[nH]c3cc(Cl)ccc3c2=O)cc1,> 52
27,O=c1c(Cc2ccccc2)c(O)c2cccc3c4c(n1c23)CCCC4,3.7

row,SMILES,solubility kinetic [µg/mL]
1,Cc1nc(CN(C)Cc2nc(Cc3cccc(F)c3)no2)cs1,> 49.9
2,COc1ccc(C)cc1N(CC(=O)N1CCOCC1)S(C)(=O)=O,> 51.4
3,CC1CCCC(C)N1C(=O)COC(=O)c1cccnc1Cl (stereo unspecified),> 46.6
4,Cc1ccc2c(c1)sc1nc(=O)ccn12,> 32.4
5,Cc1cc(=O)n(C)c2ccccc12,> 26
6,Cc1cc(C)c(NC(=O)C2=COCCO2)c(C)c1,> 37.1
7,O=[N+]([O-])c1ccc(N2CCCC2)nc1,26.8
8,CCn1c(=O)c2c(nc3n2CCN3c2ccccc2)n(C)c1=O,3.1
9,Cc1cccc(OCCCCCN2CCOCC2)c1C,28.6
10,Cc1ccc2c(Cl)cc(Cl)c(OCC(=O)O)c2n1,> 42.9
11,Cc1c(C(=O)O)sc2[nH]c(=O)n(Cc3ccccc3)c(=O)c12,45.7
12,COc1cc(NC(=S)N2CCCCC2C)c(OC)cc1Cl (stereo unspecified),44.7
13,CC(C)Cn1cc(Cl)c(=O)n(CC(C)C)c1=O,> 38.8
14,Nc1cccc(CN2CCCC2)c1,> 26.4
15,CC1CCCN(C2(O)C(=O)Nc3c(C(F)(F)F)cccc32)C1 (stereo unspecified),> 47.1
16,Cc1ccccc1C(=O)NCC(=O)NC1CC1,> 34.8
17,O=C(CC12CC3CC(CC(C3)C1)C2)NCc1ccc(F)cc1,< 0.6
18,Cc1n(Cc2ccccc2)c2cc([N+](=O)[O-])ccc2[n+]1Cc1ccccc1.[Cl-],> 59.1
19,Cc1c(C=O)c2ccccc2n1Cc1ccccc1F,20.4
20,CC1(CO)COC(c2ccccc2)=N1 (stereo unspecified),> 28.7
21,NC(=O)c1ccccc1NC(=O)CC12CC3CC(CC(C3)C1)C2,4.1
22,COc1ccccc1N1C(=O)CSC1=S,3.4
23,CCCNC(=O)CSc1nnc(-c2ccc(F)cc2)o1,> 44.3
24,O=c1cc(CO)[nH]cc1OCc1ccccc1,34.4
25,O=C(COC(=O)C1CCCC1)Nc1cccc(Cl)c1Cl,5.9
26,Cc1[nH]c2ccccc2c1C(c1ccncc1)N1CCC(C)CC1 (stereo unspecified),> 47.9
27,COc1c(C)cc(S(=O)(=O)N2CCOCC2)c(C)c1C,> 44.9

# Next, values leading:
row,solubility kinetic [µg/mL],SMILES
1,> 38.3,COc1ccc(/C=N/NC(=O)c2cccnc2)cc1
2,19.7,O=C(COC(=O)c1cc(=O)[nH]c2ccccc12)Nc1ccccc1F
3,32.3,Cn1ccnc1SCC(=O)c1ccc(F)cc1
4,6.2,COc1ccc(/C=N/OC(=O)Nc2ccc(Cl)cc2)c(OC)c1
5,> 51.5,COc1ccc(CC(=O)OCC(=O)Nc2ccc3c(c2)OCO3)cc1
6,2.2,COc1ccc(Cl)cc1C(=O)Nc1cccc2ncccc12
7,< 0.3,O=C1N(c2ccccc2)CCN1c1ccccc1
8,> 49.7,CC1CC(=O)Nc2ccccc2N1C(=O)Nc1ccc(F)cc1F (stereo unspecified)
9,11.5,O=C(/C=C/c1ccc([N+](=O)[O-])cc1)Nc1cccc(S(=O)(=O)NC2=NCCCCC2)c1
10,15.5,COc1ccc(NC(=O)NC(C)c2ccccc2)cc1 (stereo unspecified)
11,< 0.5,c1ccc(-c2cccc(-c3ccccc3)n2)cc1
12,49.1,NS(=O)(=O)c1cc(C(=O)NCCc2ccccn2)ccc1Cl
13,3.1,COc1ccc(OC)c(NC(=O)c2nc(-c3ccccc3)oc2C)c1
14,19.7,CCc1ccc(OCCn2ccnc2)cc1
15,> 43.2,CCOC(=O)Cn1nc(C)cc1NC(=O)c1ccncc1
16,11.2,COc1ccc(N2C(=O)CC(c3ccccc3)C2=O)cc1 (stereo unspecified)
17,38.1,O=C(COc1ccccc1)NS(=O)(=O)c1ccccc1
18,> 47.9,O=C(CCC(=O)c1ccccc1)Nc1ccccc1OC(F)F
19,7.6,COc1cc(C=O)ccc1OCC(=O)Nc1ccc2c(c1)OCO2
20,3.8,CCOC(=O)c1sc(NC(=O)Cc2ccc(F)cc2)nc1C
21,> 32.7,NC(=S)N/N=C/c1c[nH]c2ccccc12
22,> 45.2,COc1ccc(CC(=O)Nc2cc(C)ccc2O)cc1OC
23,> 41.5,Cc1nc2ccccc2cc1C(=O)NCc1ccccc1

row,solubility kinetic [µg/mL],SMILES
1,46.3,COC(=O)c1ccc(C2C(C#N)=C(N)Oc3cc(O)ccc32)cc1 (stereo unspecified)
2,34.1,O=C(COc1ccccc1)Nc1ccc(C(=O)N2CCCC2)cc1
3,7.1,CC(C)c1ccc(C(=O)CN2C(=O)NC3(CCc4ccccc43)C2=O)cc1 (stereo unspecified)
4,39.6,S=C(NCc1cccnc1)Nc1cc(Cl)cc(Cl)c1
5,> 51.1,CSc1cccc(NC(=O)C2CC(=O)N(Cc3ccccc3)C2)c1 (stereo unspecified)
6,33.8,COCCN(CC(=O)Nc1cccc(C)c1C)C(=O)C1(c2ccc(Cl)cc2)CCC1
7,0.7,Cc1ccc2c(c1)N(CC(=O)Nc1ccccc1F)C(=O)CO2
8,0.7,COc1ccc2nc(NC(=O)c3ccccc3O)sc2c1
9,2.9,Cc1ccc(O)c(CNc2cccc3cccnc23)c1
10,7.9,CCOc1ccccc1NC(=O)Nc1ccsc1C(=O)OC
11,< 0.3,CCN(CC)CCN(C(=O)/C=C/c1cccs1)c1nc2ccc(F)cc2s1.Cl
12,> 44.2,CC(OC(=O)c1ccco1)C(=O)Nc1ccc(Cl)cn1 (stereo unspecified)
13,38.1,Cc1ccc(S(=O)(=O)/N=C(\N)c2ccc(F)cc2)cc1
14,> 42,COC(=O)c1ccccc1Oc1cnc2ccccc2n1
15,> 42.8,COc1ccc(CC(=O)NCc2ccccc2)cc1OC
16,26.7,O=C(c1ccccc1Br)N1CCn2c1nc1ccccc12
17,6,COc1ccc(N2CCOCC2)c(NC(=O)c2cccc3ccccc23)c1
18,2.1,COc1cc2c(cc1OC)-c1cc(Nc3ccc(F)cc3)nc(=O)n1CC2
19,43.7,N#Cc1ccc(CN2C=NS(=O)(=O)c3ccccc32)cc1
20,2.9,Cc1cc(C(=O)O/N=C(\N)c2ccc(C(C)(C)C)cc2)no1
21,46.3,O=C(c1ccc([N+](=O)[O-])cc1)N1CCN(c2ncccn2)CC1
22,39.7,COc1cnc(-c2ccccn2)nc1N(C)c1ccccc1
23,< 0.7,C=CCOc1ccc(C(=O)n2cc(C(=O)OC)c3ccccc32)cc1

row,solubility kinetic [µg/mL],SMILES
1,10.7,N#C/C(=C/c1cccc([N+](=O)[O-])c1)C(=O)Nc1ccccc1O
2,> 48.2,COc1ccc(C(=O)NCC(=O)N2CCNC(=O)C2)cc1OC
3,4.8,O=C(NCc1cccnc1)C(=O)Nc1nc(-c2ccccc2)cs1
4,> 52,COc1ccc(NC(=O)CO/N=C2/CCCc3nonc32)c(OC)c1
5,< 0.5,CCc1ccc(OCc2cnc(Cl)s2)cc1
6,30,O=C(Oc1ccc(Cl)c2cccnc12)c1cccnc1
7,1.3,CC(=O)N(C)c1ccc(NC(=O)Nc2cccc3ccccc23)cc1
8,10.2,CN1CCc2c(sc(/N=C/c3c[nH]c4ccccc34)c2C(N)=O)C1
9,> 38,FC(F)(F)c1ccc(NCc2ccccn2)nc1
10,> 70.1,COc1ccc(NC(C)=O)cc1S(=O)(=O)Nc1ccc(S(=O)(=O)N2CCCCC2)cc1
11,0.4,Cc1ccc(NC(=O)C(=O)NCCc2c[nH]c3ccccc23)c(C)c1
12,> 33.9,Nc1ccc(C(=O)NCc2ccccc2)cc1
13,> 57.4,COc1ccccc1N1CC(C(=O)NCC2COc3ccccc3O2)CC1=O (stereo unspecified)
14,> 55.6,Cc1ccccc1NC(=O)CCC(=O)OCC(=O)c1cccc([N+](=O)[O-])c1
15,0.7,Cc1[nH]c2ccccc2c1/C=C/C(=O)c1ccncc1
16,34,CC(=O)Nc1cc[n+](C(C)C(=O)c2ccccc2)cc1.[Cl-] (stereo unspecified)
17,10.4,COc1cc(NC(=O)c2ccc(N3CCCC3=O)cc2)cc(OC)c1
18,25,CCOC(=O)c1ccc(N2C(=O)c3cccc4c(C(=O)O)ccc(c34)C2=O)cc1
19,30.9,CCc1ccc(OCC(=O)NC(C)C)cc1
20,8.1,CC(=O)Nc1ccc(C(=O)OCC(=O)NCc2ccc3c(c2)OCO3)cc1
21,40.1,COc1ccccc1OCCCN1C(=O)C(=O)c2cccc(C)c21
